Results published in US20210380606A1, “5-AZAINDAZOLE DERIVATIVES AS ADENOSINE RECEPTOR ANTAGONISTS” (Merck Patent GmbH, priority 2018, published 2021).
Each block holds one molecule with its values, some of them ahead of it.

What was measured:
Type in all cases: cell-based
[1] = molecular target: T1, human A2A receptors (Homo sapiens, UniProt P29274); assay: Functional human A2A receptor activity, recombinant HEK293 cells, cAMP (HTRF); conditions: read-out: A2A (Category)
T1 construct: expressed in transfected cells; host or cells: HEK293
How it was run: (§1)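 Receptor function was assessed by measuring cAMP, the second messenger for adenosine receptors. Cells were incubated for 15 min, after which HTRF reagents were added and cellular cAMP levels were read.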

[2] = molecular target: T2, human A2B receptors (Homo sapiens, UniProt P29275); assay: Functional human A2B receptor activity, recombinant HEK293 cells, cAMP (HTRF); conditions: read-out: A2B (Category)
T2 construct: expressed in transfected cells; host or cells: HEK293
T2 sequence (P29275 1-332): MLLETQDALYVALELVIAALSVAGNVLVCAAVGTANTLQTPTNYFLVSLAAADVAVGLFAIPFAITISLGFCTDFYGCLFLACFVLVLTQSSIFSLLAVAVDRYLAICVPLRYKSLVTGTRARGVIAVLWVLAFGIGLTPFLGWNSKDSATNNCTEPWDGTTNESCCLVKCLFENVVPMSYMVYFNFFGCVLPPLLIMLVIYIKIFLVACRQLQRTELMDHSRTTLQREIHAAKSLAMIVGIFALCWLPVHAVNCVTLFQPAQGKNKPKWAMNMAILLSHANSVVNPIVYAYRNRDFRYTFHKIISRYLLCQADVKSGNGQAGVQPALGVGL
How it was run: as §1

[3] = molecular target: T3, Gs-coupled human A2A receptor (Homo sapiens, UniProt P29274); assay: Human T cell assay, endogenous A2A receptor, cAMP (HTRF)
T3 construct: The endogenous functional activity of the Gs-coupled human A2A receptor was measured in T cells; endogenous in cells; host or cells: human pan T cells isolated from PBMC of fresh whole blood
Method: The endogenous functional activity of the Gs-coupled human A2A receptor was measured in T cells, where this receptor is highly expressed. Determination of receptor activity was done by quantification of cAMP, which is a second messenger for adenosine receptors.
In short, human pan T cells were isolated from human PBMC (MACS Pan T Cell Isolation Kit, Miltenyi Biotec) that have been derived from fresh whole blood. The T cells were seeded in 384-well microtiter plates and treated with test compounds. […] Finally, HTRF reagents (cAMP Femto Kit, CisBio) were added to the wells, and after 1 h cellular cAMP levels were determined using the ENVISION (Perkin Elmer) plate reader.
The obtained raw data were normalized against the inhibitor control and the neutral control (DMSO) and the normalized data were fitted using Genedata Screener software.

[4] = system: Human T cell; assay: Human T cell IL-2; conditions: human T cells
[5] = system: mouse Pan T cells; assay: Mouse T cell IL-2 rescue from NECA (CD3/CD28-activated Pan T cells, ELISA); conditions: 24 h
Description: Adenosine (Ado) in tumor microenvironment can inhibit T cell activity by signaling through A2A receptors and suppress cytokine secretion by T cells. […] Potential A2A antagonists or A2A/A2B dual antagonists can rescue T cells from this inhibition. Herein, we describe the in vitro system we established using Pan T cells from mouse spleens to screen potential A2A antagonists or A2A/A2B dual antagonists for their activity. The method described involves the use of CD3/CD28 pre-coated beads to stimulate Pan T cells purified from mouse splenocytes, combined with the addition of A2A agonist along with potential A2A or A2A/A2B dual antagonists to evaluate potentiation of T cell cytokine production.
Briefly, mouse Pan T cells are purified from spleens of BALB/c mice using Pan T cell isolation kit Mouse II (MACS Miltenyi biotech Cat #Order no. 130-095-130) according to manufacturer's protocol. The purified T cells are seeded in Nunc™ 96-Well Polystyrene Round Bottom Microwell Plates in RPMI medium with 10% heat inactivated fetal bovine serum. The cells are rested at 37° C. for 1 h before activating with CD3/CD28 pre-coated beads (Dynabeads™ Mouse T-Activator CD3/CD28; Cat #11456D). After 30 min the cells are treated with varying doses of test antagonist(s). […] After 24 h incubation IL-2 levels in the supernatants are measured by ELISAs according to manufacturer's protocol (R&D systems Cat #DY402 (IL-2)). Once the concentrations are calculated, the difference of cytokine concentration of DMSO control and agonist alone control is calculated and the percentage of rescue by each concentration of antagonist is calculated by using Microsoft Excel. These percentages of cytokine rescue in a dose dependent manner of antagonist is plotted in GraphPad Prism software and IC50 is calculated.

T3 sequence (P29274 whole entry): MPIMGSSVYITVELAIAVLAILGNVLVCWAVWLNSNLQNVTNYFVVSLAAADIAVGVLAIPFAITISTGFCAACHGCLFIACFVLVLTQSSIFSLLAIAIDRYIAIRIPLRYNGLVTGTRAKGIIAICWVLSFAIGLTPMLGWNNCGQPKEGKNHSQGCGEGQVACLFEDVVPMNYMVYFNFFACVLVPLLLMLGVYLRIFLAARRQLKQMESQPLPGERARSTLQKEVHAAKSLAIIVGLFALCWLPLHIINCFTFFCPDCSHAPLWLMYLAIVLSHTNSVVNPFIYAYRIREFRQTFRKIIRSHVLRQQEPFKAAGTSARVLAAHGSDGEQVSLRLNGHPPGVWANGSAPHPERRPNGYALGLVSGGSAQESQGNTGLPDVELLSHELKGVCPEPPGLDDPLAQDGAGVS
T1 sequence (P29274 whole entry): as above

SMILES: O=C(c1cc2c(cn1)c(-c1cnc3c(F)cccn13)nn2CC(F)(F)F)N1[C@@H]2CC[C@H]1C[C@@H](O)C2 [Compound 85, [3-(8-fluoroimidazo[1,2-a]pyridin-3-yl)-1-(2,2,2-trifluoroethyl)pyrazolo[4,3-c]pyridin-6-yl]-(3-endo-hydroxy-8-azabicyclo[3.2.1]octan-8-yl)methanone]
- IC50 [1]: < 100 nM
- IC50 [2]: < 100 nM
- IC50 [3]: < 100 nM
- IC50 [4]: < 1000 nM
- IC50 [5]: < 100 nM

SMILES: O=C(c1cc2c(cn1)c(-c1coc3ccccc13)nn2CCF)N1CCCOCC1 [Compound 104, [3-Benzofuran-3-yl-1-(2-fluoro-ethyl)-1H-pyrazolo[4,3-c]pyridin-6-yl]-1,4-oxazepan-4-yl-methanone]
- IC50 [1]: < 100 nM
- IC50 [2]: < 1000 nM

SMILES: O=C(c1cc2c(cn1)c(-c1ccc3ccccn13)nn2CC(F)(F)F)N1CCCCCC1 [Compound 52, Azepan-1-yl-[3-indolizin-3-yl-1-(2,2,2-trifluoro-ethyl)-1H-pyrazolo[4,3-c]pyridin-6-yl]-methanone]
- IC50 [1]: < 100 nM
- IC50 [2]: < 1000 nM

SMILES: NC(=O)c1ccc2ncc(-c3nn(CC(F)(F)F)c4cc(C(=O)N5CCCOCC5)ncc34)n2c1 [Compound 246, 3-[6-(1,4-Oxazepane-4-carbonyl)-1-(2,2,2-trifluoro-ethyl)-1H-pyrazolo[4,3-c]pyridin-3-yl]-imidazo[1,2-a]pyridine-6-carboxylic acid amide]
- IC50 [1]: < 100 nM
- IC50 [2]: < 1000 nM

SMILES: CS(=O)(=O)Cn1nc(-c2coc3ccc(F)cc23)c2cnc(C(=O)N3CCCOCC3)cc21 [Compound 110, [3-(5-fluorobenzofuran-3-yl)-1-(methylsulfonylmethyl)pyrazolo[4,3-c]pyridin-6-yl]-(1,4-oxazepan-4-yl)methanone]
- IC50 [1]: < 100 nM
- IC50 [2]: < 100 nM

The next lines start with the values.

- IC50 [1]: < 100 nM
- IC50 [2]: < 100 nM
- IC50 [3]: < 100 nM
- IC50 [4]: < 100 nM
- IC50 [5]: < 1000 nM
SMILES: O=C(c1cc2c(cn1)c(-c1coc3ccccc13)nn2CC(F)(F)F)N1CCOCC(O)C1 (stereo not shown) [Compound 224, [3-(benzofuran-3-yl)-1-(2,2,2-trifluoroethyl)pyrazolo[4,3-c]pyridin-6-yl]-(6-hydroxy-1,4-oxazepan-4-yl)methanone]

- IC50 [1]: < 100 nM
- IC50 [2]: < 100 nM
- IC50 [3]: < 100 nM
- IC50 [4]: < 100 nM
- IC50 [5]: < 1000 nM
SMILES: O=C(c1cc2c(cn1)c(-c1coc3ccc(F)cc13)nn2CC(F)(F)F)N1CCCOCC1 [Compound 109, [3-(5-fluorobenzofuran-3-yl)-1-(2,2,2-trifluoroethyl)pyrazolo[4,3-c]pyridin-6-yl]-(1,4-oxazepan-4-yl)methanone]

- IC50 [1]: < 100 nM
- IC50 [2]: < 1000 nM
SMILES: Cc1cc(C(N)=O)cn2c(-c3nn(CC(F)(F)F)c4cc(C(=O)N5CCCCCC5)ncc34)cnc12 [Compound 244, 3-[6-(Azepane-1-carbonyl)-1-(2,2,2-trifluoro-ethyl)-1H-pyrazolo[4,3-c]pyridin-3-yl]-8-methyl-imidazo[1,2-a]pyridine-6-carboxylic acid amide]
